In patent publication US7423025B2 (MUSC Foundation for Research Development, priority 2005, dated 2008):
Entries after “also recorded” stand apart in the source; their conditions may differ.

Assays:
L6 myoblasts = assay: Azide-induced Pasteur effect in L6 myoblasts measured by microphysiometer; format: cell-based; details: sodium azide 5 mM, 10 min exposure, normalized to first azide exposure 30 min prior
Method: FIG. 5 is a graph showing increase of the azide-induced Pasteur effect on L6 myoblasts by L-3′-AM-MECA (2) and L-3′-ADMdA (1). Percent changes in extracellular acidification rates upon treatment of L6 cells with sodium azide (5 mM) are shown. Responses are the average for 10 min exposure and these are normalized to the increase measured for the first exposure of the same cells to azide 30 min prior. Typically the second exposure causes a diminished Pasteur effect (see control). Error bars are SEM for n=3-5. * Statistically different from negative control (IR).
The ability of increasing the azide-induced Pasteur in L6 myoblasts was measured by microphysiometer.

[1] = test system: Langendorff perfused mouse heart; assay: Ischemia/reperfusion model on Langendorff perfused (isolated) mouse heart, cardioprotective activity; details: for maximum ischemic contracture, in words / time until onset of ischemic contracture, in words: 5 min pretreatment before 40 min ischemia; for cardiac tissue necrosis / infarction area by TTC staining, in words: 5 min pretreatment before ischemia-reperfusion; for infarction area (TTC staining, percentage of area) / maximum ischemic contracture: 5 min pretreatment; for infarction area (TTC staining, percentage of area) / maximum ischemic contracture / onset of contracture (time until onset of ischemic contracture): 40 min global ischemia; for infarction area (TTC staining, percentage of area): 60 min reperfusion, negative control 58.3±5.8%; for infarction area (TTC staining, percentage of area) / maximum ischemic contracture / onset of contracture (time until onset of ischemic contracture) / functional recovery (% rate pressure product): Mean±SEM; for maximum ischemic contracture: negative control 105.0±6.8 cmH2O; for onset of contracture (time until onset of ischemic contracture): negative control 10.5±1.0 min; for functional recovery (% rate pressure product): after 40 min ischemia and reperfusion, negative control 21.3±1.4; for functional recovery of contractility (% RPP), in words: upon reperfusion after 40 min ischemia
[2] = biological target: S-adenosyl-L-homocysteine hydrolase (Homo sapiens, UniProt P23526); details: cited from earlier work
Sequence of S-adenosyl-L-homocysteine hydrolase (P23526 whole entry, species assumed): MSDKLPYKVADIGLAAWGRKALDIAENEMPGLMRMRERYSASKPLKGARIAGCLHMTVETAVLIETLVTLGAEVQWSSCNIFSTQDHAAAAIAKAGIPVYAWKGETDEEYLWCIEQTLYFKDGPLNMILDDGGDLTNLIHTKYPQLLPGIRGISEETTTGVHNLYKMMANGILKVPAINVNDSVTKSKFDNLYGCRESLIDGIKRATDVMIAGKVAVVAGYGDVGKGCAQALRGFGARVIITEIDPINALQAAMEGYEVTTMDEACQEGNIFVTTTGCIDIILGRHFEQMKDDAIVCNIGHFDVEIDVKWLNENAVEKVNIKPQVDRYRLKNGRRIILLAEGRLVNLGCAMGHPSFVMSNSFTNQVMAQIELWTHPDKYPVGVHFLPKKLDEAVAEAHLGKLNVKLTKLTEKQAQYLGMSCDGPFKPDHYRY

[3] = test system: mammalian nucleoside transporters; details: cited from earlier work

Compound	increase of azide-induced Pasteur effect (extracellular acidification rate) (L6 myoblasts) [%]	maximum ischemic contracture, in words [1]	time until onset of ischemic contracture, in words [1]	cardiac tissue necrosis / infarction area by TTC staining, in words [1]	infarction area (TTC staining, percentage of area) [1] [%]	maximum ischemic contracture [1] [cmH2O]	onset of contracture (time until onset of ischemic contracture) [1] [min]	functional recovery (% rate pressure product) [1]	cardiac standstill during treatment ([1]; during 5 min perfusion before ischemia, adenosine at 50 μM)	functional recovery of contractility (% RPP), in words [1]	functional recovery of contractility (% RPP), in words ([1]; listed as L-3′-AM-MECA)	activity on animal enzymes such as S-adenosyl-L-homocysteine hydrolase [2]	interaction with mammalian nucleoside transporters [3]
OC[C@H]1O[C@@H](n2cnc3c(NC4CCCC4)nc(Cl)nc32)[C@H](O)[C@@H]1O [CCPA, reference compound]	19												
CN(C)c1ncnc2c1ncn2[C@H]1O[C@@H](CO)[C@H](N)[C@@H]1O [Compound 1, L-3′-amino-3′-deoxy-N^6-dimethyladenosine]	136	significant decrease of maximum ischemic contracture; also recorded: significantly decreased maximum ischemic contracture	increasing the time until onset of ischemic contracture	protective effect that is comparable or higher than adenosine; also recorded: showed decrease of cardiac tissue necrosis	39.8±5.7	74.3±7.8	14.5 ± 0.9	32.2±3.7 cmH2O/s % rate pressure product	neither showed cardiac standstill during treatment; also recorded: neither (1) nor (2) induce cardiac standstill	significant functional recovery of contractility			
CNC(=O)[C@@H]1O[C@H](n2cnc3c(NC)ncnc32)[C@@H](O)[C@H]1N [Compound 2, L-3′-amino-3′-deoxy-N^6-methyladenosine-5′-N-methyluronamide]	128	significant decrease of maximum ischemic contracture; also recorded: significantly decreased maximum ischemic contracture	does not show a significant effect; also recorded: did not significantly alter this parameter	protective effect that is comparable or higher than adenosine; also recorded: showed decrease of cardiac tissue necrosis	31.8±5.4	87.6±6.3				did not show significant functional recovery	did not show any significant effect		
Nc1ncnc2c1ncn2[C@H]1O[C@@H](CO)[C@H](O)[C@@H]1O [L-adenosine]												inactive	does not interact
CNC(=O)[C@H]1O[C@@H](n2cnc3c(N)ncnc32)[C@H](O)[C@@H]1O [MECA, reference compound]	115												
Nc1ncnc2c1ncn2[C@@H]1O[C@H](CO)[C@@H](O)[C@H]1O [adenosine, reference compound]		lower maximal	delayed time until onset of ischemic contracture	significantly less evidence of necrosis	24.6±5.8	74.1±15.6	13.6 ± 0.6	30.7±3.4 cmH2O/s % rate pressure product		significantly increased recovery of function			
